Tests used:
Type in all cases: biochemical
activated hepsin = target: T1, activated hepsin (Homo sapiens, UniProt P05981); test: Fluorescent kinetic enzyme assay of hepsin activity (Boc-QAR-AMC); details: Table 2; read-out: Hepsin (IC50 nM)
T1 construct: purchased R&D Systems 4776-SE-010

Factor Xa = Factor Xa (Homo sapiens, UniProt P00742); test: Chromogenic kinetic enzyme assay of Factor Xa (S2222); details: Table 2; chromogenic assay; read-out: Factor Xa* (IC50 nM)
Experimental: Using GraphPad Prism (GraphPad Software, San Diego, CA), a four-parameter curve fit was used to determine the inhibitor IC50s from a plot of the mean reaction velocity versus the inhibitor concentration. The IC50 values represent the average of three or more separate experimental determinations. Apparent Ki values were calculated from the IC50 values using the Cheng and Prusoff equation (Ki=IC50/(1+[S]/Km).
Using GraphPad Prism version 6.04 software program, (GraphPad Software, San Diego, CA, graphpad.com), a four parameter curve fit was used to determine the inhibitor IC50s from a plot of the mean reaction velocity versus the inhibitor concentration.
Fluorescent inhibitor and chromogenic proteolytic assays were performed for compounds prepared in Example 11 in general accordance with the procedures described in Example 9.

[1] = target: T2, recombinant HGFA serine protease domain (Homo sapiens, UniProt Q04756); test: Fluorescent kinetic enzyme assay of HGFA activity (Boc-QLR-AMC); details: Table 2; read-out: HGFA (IC50 nM)
T2 construct: His6 tag (N); seven amino acid spacer plus TEV cleavage site (N); made in house; host or cells: High 5 insect cells (baculovirus; Sf9 for virus production)
T2 sequence (Q04756 373-655): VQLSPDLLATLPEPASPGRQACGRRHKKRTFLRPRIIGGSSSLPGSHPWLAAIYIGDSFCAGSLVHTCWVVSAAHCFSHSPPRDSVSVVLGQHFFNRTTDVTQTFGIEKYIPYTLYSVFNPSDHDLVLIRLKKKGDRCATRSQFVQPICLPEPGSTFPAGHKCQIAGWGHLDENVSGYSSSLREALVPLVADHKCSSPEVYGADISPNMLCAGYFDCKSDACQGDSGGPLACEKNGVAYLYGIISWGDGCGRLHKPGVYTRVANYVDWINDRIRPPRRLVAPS
From the text: The compounds prepared in Examples 1 to 8 were subjected to a series of inhibitions studies. The compounds were first tested in an HGFA enzymatic assay using the fluorogenic substrate Boc-QLR-AMC with a recombinant form of the HGFA serine protease domain.
This PCR product was cloned into the SfoI-HindIII sites of a modified pFastBac HT baculovirus expression vector (Addgene, Cambridge, MA). This vector contains a six amino His tag followed by a seven amino spacer and a seven amino acid TEV cleavage site placed immediately downstream of the honey bee melittin signal peptide. Using a modified Bac to Bac Expression System (Life Technologies, Carlsbad, CA), recombinant HGFA bacmids were obtained by transforming DH10Bac Escherichia coli cells. To obtain HGFA containing baculovirus, purified bacmids were transfected into Sf9 insect cells. After 5 days in culture at 27° C., media was harvested from transfected Sf9 cells. This media was used to prepare baculovirus infected insect cells (BIICs). These BIIICs were used to infect High 5 insect cells. Four days post infection, media was harvested, and recombinant protein was prepared as follows. Media was chilled to 4° C. and spun at 4000×g for 20 minutes (all subsequent steps were performed at 4° C. unless noted). Clarified media was passed first through a Whatman GF/B 1 um (#1821-047, GE Healthcare Life Sciences, Piscataway, NJ) and then a 0.22 μm PES membrane (#99955, TPP Techno Plastic Products AG, Trasadingen, Switzerland) and then concentrated using a Pall Centramate tangential flow system and Centramate T-series Cassette (#OS010T12, Pall Corporation, Port Washington, NY). Concentrated media was then buffer exchanged in two steps, five volumes of 50 mM Na-phosphate, 500 mM NaCl, pH 6.2, followed by five volumes of 50 mM Na-phosphate, 500 mM NaCl, pH 7.5. […] After mixing this slurry for 12 hours, nickel agarose beads were allowed to settle by gravity and then loaded into a column. Beads were washed with buffer (25 mM Na-phosphate, 500 mM NaCl, 25 mM imidazole, pH 8) and the bound protein eluted using (25 mM Na-phosphate, 500 mM NaCl, 250 mM imidazole, pH 8). Using a Amicon Ultra-4 Centrifugal filters (#UFC801008, Merck Millipore, Ltd., Tullagreen, Ireland), peak protein fractions were concentrated and run over a Superdex-200 10/300 GL column (GE Healthcare Life Sciences, Piscataway, NJ) in 10 mM Tris, 200 mM NaCl, 0.2 mM EDTA, pH 8. HGFA containing fractions were pooled, concentrated, made 50% glycerol, and stored at minus 20° C. Protein was quantitated using a modified Lowry protein assay (#500-0006, Bio-Rad Laboratories, Hercules, CA) and specific activity determined using Boc-QLR-AMC substrate.
Fluorescent kinetic enzyme assays of HGFA, matriptase, and hepsin activity: Compounds (0-20 μM final concentration in reaction) were diluted in DMSO (2% DMSO final concentration in reaction) and then mixed with either recombinant HGFA serine protease domain, matriptase (#3946-SE-010, R&D Systems, Minneapolis, Minnesota), or activated hepsin* (#4776-SE-010, R&D Systems, Minneapolis, Minnesota) in black 384 well plates (Corning #3575. Coming, NY). The final assay concentration for HGFA, matriptase, and hepsin, were 6.25 nM, 0.2 nM, and 0.3 nM, respectively in TNC buffer (25 mM Tris, 150 mM NaCl, 5 mM CaCl2, 0.01% Triton X-100, pH 8). After thirty minutes of incubation at room temperature, Boc-QLR-AMC substrate was added (HGFA assay) or Boc-QAR-AMC substrate (matriptase, and hepsin assays). Fluorescence (excitation at 380 nm and emission at 460 nm) was kinetically measured at room temperature over a 1 hour time period using a Biotek Synergy 2 plate reader (Winnoski, VT). From a plot of the mean reaction velocity versus the inhibitor concentration, a non-linear four parameter curve fit was performed using GraphPad Prism (GraphPad Software, San Diego, CA) to determine inhibitor IC50s. The IC50 values were determined from the average of three or more separate experimental determinations. […]

matriptase = target: T3, matriptase (Homo sapiens, UniProt Q9Y5Y6); test: Fluorescent kinetic enzyme assay of matriptase activity (Boc-QAR-AMC); details: Table 2; read-out: Matriptase (IC50 nM)
T3 construct: purchased R&D Systems 3946-SE-010
T3 sequence (Q9Y5Y6 615-855 limits assumed): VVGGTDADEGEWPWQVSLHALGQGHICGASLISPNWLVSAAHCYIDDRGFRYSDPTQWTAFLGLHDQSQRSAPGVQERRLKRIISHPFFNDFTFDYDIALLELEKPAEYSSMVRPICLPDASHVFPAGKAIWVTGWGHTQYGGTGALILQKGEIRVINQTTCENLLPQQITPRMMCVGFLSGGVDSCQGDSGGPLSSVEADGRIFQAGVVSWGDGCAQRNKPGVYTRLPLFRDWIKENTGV

T1 sequence (P05981 163-417 limits assumed): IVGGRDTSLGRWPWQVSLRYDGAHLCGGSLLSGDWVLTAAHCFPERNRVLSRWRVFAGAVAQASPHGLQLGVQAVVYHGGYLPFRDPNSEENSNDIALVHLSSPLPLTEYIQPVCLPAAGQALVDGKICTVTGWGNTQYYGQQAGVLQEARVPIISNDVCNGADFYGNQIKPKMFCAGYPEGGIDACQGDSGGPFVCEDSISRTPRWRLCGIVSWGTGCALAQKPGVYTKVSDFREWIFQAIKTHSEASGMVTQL
T1 sequence (P05981 1-162 partner limits assumed): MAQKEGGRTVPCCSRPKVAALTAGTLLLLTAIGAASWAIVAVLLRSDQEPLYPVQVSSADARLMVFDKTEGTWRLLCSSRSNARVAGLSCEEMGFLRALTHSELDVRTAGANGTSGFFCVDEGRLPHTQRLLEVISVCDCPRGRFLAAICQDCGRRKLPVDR
Sequence of Factor Xa (P00742 235-488 limits assumed): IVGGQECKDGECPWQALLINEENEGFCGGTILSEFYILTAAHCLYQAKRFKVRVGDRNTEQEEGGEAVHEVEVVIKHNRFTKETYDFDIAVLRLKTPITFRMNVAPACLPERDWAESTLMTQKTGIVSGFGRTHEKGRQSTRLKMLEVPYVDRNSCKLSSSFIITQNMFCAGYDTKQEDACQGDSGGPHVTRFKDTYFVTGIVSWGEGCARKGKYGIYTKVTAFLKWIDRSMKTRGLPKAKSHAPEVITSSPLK
Sequence of Factor Xa (P00742 41-179 partner limits assumed): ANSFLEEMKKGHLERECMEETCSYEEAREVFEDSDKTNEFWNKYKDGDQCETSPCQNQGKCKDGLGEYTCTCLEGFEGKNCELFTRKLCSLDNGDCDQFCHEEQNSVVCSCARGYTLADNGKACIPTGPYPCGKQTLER

Molecule `CC(C)C[C@@H]1NC(=O)[C@@H](N)CC(=O)NCCCC[C@@H](C(=O)N[C@@H](CCCNC(=N)N)C(=O)c2nc3ccccc3s2)NC1=O` [VD2055, (3S,6S,14S)-6-amino-N—((S)-1-(benzo[d]thiazol-2-yl)-5-guanidino-1-oxopentan-2-yl)-3-isobutyl-2,5,8-trioxo-1,4,9-triazacyclotetradecane-14-carboxamide] has an IC50 (activated hepsin) of 0.46 nM, an IC50 (Factor Xa) of 1550 nM and an IC50 [1] of 11400 nM. It also gave an IC50 (matriptase) of 0.86 nM.
`CC(C)C[C@@H]1NC(=O)[C@@H](N)CCCCNC(=O)CC[C@@H](C(=O)N[C@@H](CCCNC(=N)N)C(=O)c2nc3ccccc3s2)NC1=O` [VD2056, (2S,5S,14S)-14-amino-N—((S)-1-(benzo[d]thiazol-2-yl)-5-guanidino-1-oxopentan-2-yl)-2-isobutyl-3,8,15-trioxo-1,4,9-triazacyclopentadecane-5-carboxamide] was tested, and the IC50 (activated hepsin) was 11.9 nM, the IC50 [1] was over 20000 nM and the IC50 (matriptase) was 11.5 nM.
With `CC(=O)N[C@H]1CCCCNC(=O)CC[C@@H](C(=O)N[C@@H](CCCNC(=N)N)C(=O)c2nc3ccccc3s2)NC(=O)[C@H](CC(C)C)NC1=O` [VD2064, (2S,5S,14S)-14-acetamido-N—((S)-1-(benzo[d]thiazol-2-yl)-5-guanidino-1-oxopentan-2-yl)-2-isobutyl-3,8,15-trioxo-1,4,9-triazacyclopentadecane-5-carboxamide] the IC50 (activated hepsin) was 1.7 nM, the IC50 (Factor Xa) was 723 nM and the IC50 [1] was 4470 nM. For the same molecule, the IC50 (matriptase) was 4.4 nM.
For `CC(=O)N[C@H]1CCCCNC(=O)CC[C@@H](C(=O)N[C@@H](CCCNC(=N)N)C(=O)c2nc3ccccc3s2)NC(=O)[C@H](CCCNC(=N)N)NC1=O` [VD2109, (2S,5S,14S)-14-acetamido-N—((S)-1-(benzo[d]thiazol-2-yl)-5-guanidino-1-oxopentan-2-yl)-2-(3-guanidinopropyl)-3,8,15-trioxo-1,4,9-triazacyclopentadecane-5-carboxamide], the IC50 (activated hepsin) was 0.08 nM, the IC50 [1] was 5050 nM and the IC50 (matriptase) was 0.13 nM.
Work on `CC(=O)N[C@H]1CCCCNC(=O)CCC(C(=O)N[C@H](CCCNC(=N)N)C(=O)c2nc3ccccc3s2)NC(=O)[C@H](CCCNC(=N)N)NC1=O` (some centres unmarked) [VD2109A] yielded an IC50 (activated hepsin) of 0.14 nM, an IC50 [1] of 4090 nM and an IC50 (matriptase) of 0.19 nM.
Work on `CC(=O)N[C@H]1CCCCNC(=O)C[C@@H](C(=O)N[C@@H](CCCNC(=N)N)C(=O)c2nc3ccccc3s2)NC(=O)[C@H](CC(C)C)NC1=O` [VD2167, (2S,5S,13S)-13-acetamido-N—((S)-1-(benzo[d]thiazol-2-yl)-5-guanidino-1-oxopentan-2-yl)-2-isobutyl-3,7,14-trioxo-1,4,8-triazacyclotetradecane-5-carboxamide] yielded an IC50 (activated hepsin) of 25.1 nM, an IC50 (Factor Xa) of 1160 nM and an IC50 (matriptase) of 19.6 nM.
`CC(=O)N[C@H]1CCC(=O)NCCCC[C@@H](C(=O)N[C@@H](CCCNC(=N)N)C(=O)c2nc3ccccc3s2)NC(=O)[C@H](CC(C)C)NC1=O` [VD2169, (2S,5S,14S)-14-acetamido-N—((S)-1-(benzo[d]thiazol-2-yl)-5-guanidino-1-oxopentan-2-yl)-2-isobutyl-3,11,15-trioxo-1,4,10-triazacyclopentadecane-5-carboxamide] gave an IC50 (activated hepsin) of 8.4 nM, an IC50 (Factor Xa) of 1710 nM and an IC50 (matriptase) of 3.1 nM.
Work on `CC(=O)N[C@H]1Cc2ccc(cc2)OC/C=C\C[C@@H](C(=O)NC(CCCNC(=N)N)C(=O)c2nc3ccccc3s2)NC(=O)[C@H](CC(C)C)NC1=O` (some centres unmarked) [VD4010A] yielded an IC50 (activated hepsin) of 1.14 nM, an IC50 [1] of 197 nM and an IC50 (matriptase) of 31.6 nM.
In the case of `CC(=O)N[C@H]1Cc2ccc(cc2)OC/C=C\CNC(=O)CC[C@@H](C(=O)N[C@@H](CCCNC(=N)N)C(=O)c2nc3ccccc3s2)NC(=O)[C@H](CC(C)C)NC1=O` [VD4018, (11S,14S,17S,Z)-17-acetamido-N—((S)-1-(benzo[d]thiazol-2-yl)-5-guanidino-1-oxopentan-2-yl)-14-isobutyl-8,13,16-trioxo-2-oxa-7,12,15-triaza-1(1,4)-benzenacyclooctadecaphan-4-ene-11-carboxamide], the IC50 (activated hepsin) is reported as 6.31 nM, the IC50 (Factor Xa) is reported as 1240 nM and the IC50 (matriptase) is reported as 9.84 nM.
With `C=CCNC(=O)CC[C@H](NC(=O)[C@H](CC(C)C)NC(=O)[C@H](Cc1ccc(OCC=C)cc1)NC(C)=O)C(=O)N[C@@H](CCCNC(=N)N)C(=O)c1nc2ccccc2s1` [VD4022, (S)-2-((S)-2-((S)-2-acetamido-3-(4-(allyloxy)phenyl)propanamido)-4-methylpentanamido)-N5-allyl-N1-((S)-1-(benzo[d]thiazol-2-yl)-5-guanidino-1-oxopentan-2-yl)pentanediamide] the IC50 (activated hepsin) was 10.1 nM, the IC50 [1] was 4750 nM and the IC50 (matriptase) was 19.1 nM.
`CC(=O)N[C@H]1Cc2ccc(cc2)OC/C=C\CNC(=O)C[C@@H](C(=O)N[C@H](CCCNC(=N)N)C(=O)c2nc3ccccc3s2)NC(=O)[C@H](CC(C)C)NC1=O` [VD4054A] was tested, and the IC50 (activated hepsin) was 14 nM, the IC50 [1] was over 20000 nM and the IC50 (matriptase) was 76.6 nM.
`CC(=O)N[C@H]1Cc2ccc(cc2)OCCCC[C@@H](C(=O)N[C@H](CCCNC(=N)N)C(=O)c2nc3ccccc3s2)NC(=O)[C@H](Cc2ccccc2)NC1=O` [VD4111A] was tested, and the IC50 (activated hepsin) was 12.7 nM, the IC50 [1] was 3280 nM and the IC50 (matriptase) was 330 nM.
`CC(=O)N[C@@H](Cc1ccc(O)c([N+](=O)[O-])c1)C(=O)N[C@@H](CC(C)C)C(=O)N[C@@H](Cc1ccc(Br)cc1)C(=O)N[C@H](CCCNC(=N)N)C(=O)c1nc2ccccc2s1` [VD4112A] gave an IC50 (activated hepsin) of 23.9 nM, an IC50 [1] of 3510 nM and an IC50 (matriptase) of 111 nM.
With `CC(=O)N[C@@H](Cc1ccc(O)c([N+](=O)[O-])c1)C(=O)N[C@@H](CC(C)C)C(=O)N[C@@H](Cc1ccc(Br)cc1)C(=O)N[C@@H](CCCNC(=N)N)C(=O)c1nc2ccccc2s1` [VD4112] the IC50 (activated hepsin) was 1.15 nM, the IC50 [1] was 14000 nM and the IC50 (matriptase) was 9.49 nM.

Source: US12590123B2, “Compounds and methods for treating cancer, viral infections, and allergic conditions” (Washington University, priority 2019, dated 2026)
